Laboratory results as given in PMC4169866 (Investigational New Drugs, 2014).
pIC50: −log10 of the molar value.

How the values were obtained:
[1] = target: bRaf (Homo sapiens, UniProt P15056); assay: Biochemical kinase profiling bRaf
[2] = target: Aurora A (Homo sapiens, UniProt O14965); assay: Biochemical kinase profiling Aurora A
[3] = target: Aurora B (Homo sapiens, UniProt Q96GD4); assay: Biochemical kinase profiling Aurora B
[4] = target: PLK1 (Homo sapiens, UniProt P53350); assay: Biochemical kinase profiling PLK1
PLK1, sequence (P53350 whole entry): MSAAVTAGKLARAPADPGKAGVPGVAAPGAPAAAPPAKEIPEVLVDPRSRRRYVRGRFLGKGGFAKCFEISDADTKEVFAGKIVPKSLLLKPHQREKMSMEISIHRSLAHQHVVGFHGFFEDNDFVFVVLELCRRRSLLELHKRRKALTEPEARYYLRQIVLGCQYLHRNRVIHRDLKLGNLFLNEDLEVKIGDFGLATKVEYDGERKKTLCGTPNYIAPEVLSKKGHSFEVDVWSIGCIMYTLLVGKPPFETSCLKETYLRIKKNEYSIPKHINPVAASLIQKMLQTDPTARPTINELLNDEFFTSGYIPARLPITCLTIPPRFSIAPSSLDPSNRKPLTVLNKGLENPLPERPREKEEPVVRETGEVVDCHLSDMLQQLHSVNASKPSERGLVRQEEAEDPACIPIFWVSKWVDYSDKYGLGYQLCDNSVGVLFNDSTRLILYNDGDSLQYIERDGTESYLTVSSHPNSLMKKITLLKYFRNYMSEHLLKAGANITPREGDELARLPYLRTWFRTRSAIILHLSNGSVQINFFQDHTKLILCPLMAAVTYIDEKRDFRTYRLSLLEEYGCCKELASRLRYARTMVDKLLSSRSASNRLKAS

[5] = target: PLK3 (Homo sapiens, UniProt Q9H4B4); assay: Biochemical kinase profiling PLK3
PLK3, sequence (Q9H4B4 whole entry): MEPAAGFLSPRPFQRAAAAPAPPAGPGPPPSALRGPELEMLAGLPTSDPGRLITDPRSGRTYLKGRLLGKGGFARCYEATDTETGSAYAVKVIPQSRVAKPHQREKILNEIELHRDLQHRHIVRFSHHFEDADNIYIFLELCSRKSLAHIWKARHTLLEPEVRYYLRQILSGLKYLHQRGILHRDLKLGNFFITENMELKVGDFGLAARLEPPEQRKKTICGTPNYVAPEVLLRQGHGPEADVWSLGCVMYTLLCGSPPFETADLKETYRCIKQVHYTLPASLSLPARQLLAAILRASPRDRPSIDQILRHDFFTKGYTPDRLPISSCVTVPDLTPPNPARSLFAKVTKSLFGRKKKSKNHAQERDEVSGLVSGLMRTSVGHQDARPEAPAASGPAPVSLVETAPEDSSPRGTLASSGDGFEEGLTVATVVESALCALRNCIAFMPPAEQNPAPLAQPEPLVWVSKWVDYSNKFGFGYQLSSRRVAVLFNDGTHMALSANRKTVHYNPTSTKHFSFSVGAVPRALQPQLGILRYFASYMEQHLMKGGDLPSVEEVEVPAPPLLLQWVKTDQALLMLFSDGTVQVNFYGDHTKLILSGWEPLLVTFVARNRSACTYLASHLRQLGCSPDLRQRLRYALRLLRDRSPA

[6] = target: ERK1 (Homo sapiens, UniProt P27361); assay: Biochemical kinase profiling ERK1
ERK1, sequence (P27361 whole entry): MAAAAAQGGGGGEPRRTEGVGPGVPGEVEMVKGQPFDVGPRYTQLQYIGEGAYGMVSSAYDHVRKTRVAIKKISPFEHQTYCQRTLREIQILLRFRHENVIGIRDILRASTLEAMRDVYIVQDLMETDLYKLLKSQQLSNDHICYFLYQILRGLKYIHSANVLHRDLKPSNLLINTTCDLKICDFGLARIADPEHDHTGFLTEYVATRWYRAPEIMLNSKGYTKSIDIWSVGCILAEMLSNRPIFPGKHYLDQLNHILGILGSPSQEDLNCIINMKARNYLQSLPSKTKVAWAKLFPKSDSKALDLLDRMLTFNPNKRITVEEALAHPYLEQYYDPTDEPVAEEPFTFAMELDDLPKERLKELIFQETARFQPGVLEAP

[7] = target: cRaf (Homo sapiens, UniProt P04049); assay: Biochemical kinase profiling cRaf
cRaf, sequence (P04049 whole entry): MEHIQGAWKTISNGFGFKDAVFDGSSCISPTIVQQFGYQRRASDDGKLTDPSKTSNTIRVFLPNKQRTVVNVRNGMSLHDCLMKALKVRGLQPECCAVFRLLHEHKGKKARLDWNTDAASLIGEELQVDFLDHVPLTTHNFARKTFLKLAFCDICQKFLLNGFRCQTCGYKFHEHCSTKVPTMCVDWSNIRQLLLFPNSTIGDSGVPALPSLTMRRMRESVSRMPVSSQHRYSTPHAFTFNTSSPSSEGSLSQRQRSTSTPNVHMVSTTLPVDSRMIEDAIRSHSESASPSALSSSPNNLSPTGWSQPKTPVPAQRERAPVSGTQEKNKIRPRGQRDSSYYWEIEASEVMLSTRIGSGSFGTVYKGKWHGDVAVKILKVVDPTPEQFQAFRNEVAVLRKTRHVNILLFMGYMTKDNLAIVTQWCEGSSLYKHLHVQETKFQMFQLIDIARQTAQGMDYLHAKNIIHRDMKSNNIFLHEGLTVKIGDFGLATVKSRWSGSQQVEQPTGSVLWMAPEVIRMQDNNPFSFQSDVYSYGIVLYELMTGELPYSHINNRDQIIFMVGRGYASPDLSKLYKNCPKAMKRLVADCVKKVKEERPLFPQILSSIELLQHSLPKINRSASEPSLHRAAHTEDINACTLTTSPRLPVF

[8] = target: AKT1 (Homo sapiens, UniProt P31749); assay: Biochemical kinase profiling AKT1
AKT1, sequence (P31749 whole entry): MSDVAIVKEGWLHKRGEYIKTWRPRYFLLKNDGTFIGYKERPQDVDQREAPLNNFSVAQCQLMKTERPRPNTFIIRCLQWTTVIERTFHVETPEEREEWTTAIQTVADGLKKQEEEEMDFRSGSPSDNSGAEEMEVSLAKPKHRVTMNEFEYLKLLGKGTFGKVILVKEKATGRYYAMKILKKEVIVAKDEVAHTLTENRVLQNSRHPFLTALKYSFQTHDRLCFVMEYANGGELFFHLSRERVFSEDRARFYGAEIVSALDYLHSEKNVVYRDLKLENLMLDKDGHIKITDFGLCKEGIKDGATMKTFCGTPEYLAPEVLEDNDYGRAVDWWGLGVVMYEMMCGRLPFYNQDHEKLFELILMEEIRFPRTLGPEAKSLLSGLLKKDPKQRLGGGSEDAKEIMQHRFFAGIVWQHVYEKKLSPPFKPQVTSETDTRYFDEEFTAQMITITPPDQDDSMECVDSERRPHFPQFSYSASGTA

[9] = target: T1, DRAK1 (Homo sapiens, UniProt Q9UEE5); assay: Millipore (UBI) kinase panel DRAK1; type: biochemical; conditions: generated at millipore (UBI) kinase panel
T1 construct: purchased Millipore/UBI
T1 sequence (Q9UEE5 whole entry): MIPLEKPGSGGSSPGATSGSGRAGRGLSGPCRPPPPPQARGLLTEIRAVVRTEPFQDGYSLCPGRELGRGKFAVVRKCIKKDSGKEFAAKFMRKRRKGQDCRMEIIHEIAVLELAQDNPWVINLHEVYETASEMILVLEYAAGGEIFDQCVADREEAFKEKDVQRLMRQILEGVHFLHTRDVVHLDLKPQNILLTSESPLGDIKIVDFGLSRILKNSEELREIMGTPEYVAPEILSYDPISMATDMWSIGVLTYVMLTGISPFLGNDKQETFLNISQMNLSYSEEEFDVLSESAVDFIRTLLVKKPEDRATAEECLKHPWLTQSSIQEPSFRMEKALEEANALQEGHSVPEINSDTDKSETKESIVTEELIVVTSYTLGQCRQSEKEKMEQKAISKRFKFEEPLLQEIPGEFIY

[10] = tested on: colo-205 cells; assay: DNA content / G1 arrest assay, colo-205 (Acumen); type: cell-based, human; conditions: Colo-205 cells
Experimental: Details for the cellular assays are provided in the supplemental materials. Briefly, image-based assays (Acumen Explorer, TPP LabTech) were used for compound screening. […] After treatment, the cells were washed, fixed and stained with antibodies to detect phosphoproteins and Propidium Iodide to monitor DNA content. The plates were then analyzed on an Acumen Explorer (TTP Labtech). The IC50 and EC50 values are determined by curve fitting to a 4-parameter logistic for each output using ACTIVITY BASE™ software.
Fixed cells are blocked with 1% bovine serum albumin (BSA, Amersham cat # RPN412V) for 30 minutes. […] Image analysis is based on cellular fluorescent signals for identifying cells in different subpopulations. Assay outputs are a percentage of each identified subpopulations; percent phosphoRB positive, percent 2 N, and percent 4 N. The IC50 and EC50 values are determined by curve fitting to a 4-parameter logistic for each output using ACTIVITY BASE™.

[11] = tested on: pERK A375; assay: pERK inhibition, A375; type: cell-based; conditions: Homo sapiens, A-375; read-out: pERK inh. A375 IC50
[12] = tested on: MV4-11 acute myelocytic leukemia (AML) cells; assay: Flow cytometry cell cycle distribution, MV4-11; type: cell-based, human
Experimental: (§1) Flow cytometry was also used to determine cell cycle distribution in cell lines, as described in the supplemental materials.
(§2) Flow cytometry was used to determine cell cycle distribution in cell lines. Cells were cultured in growth media under subconfluent conditions and treated with indicated concentrations of compound solubilized in DMSO for 24 hours at 37°C/5% CO2. After treatment, cells were collected, washed once with 4° C PBS, and fixed with 70% ethanol/30% water at -20 °C for 30 minutes. Cells were then collected by centrifugation, washed once with PBS, and stained for 30 minutes at room temperature by the addition of 1 mL of propidium iodide/Triton X-100 staining solution (20µg/mL of propidium iodide, 200µg/mL DNase-free RNase A, 0.1%(v/v) Triton x-100). Cell cycle analysis was performed using a Cytomics™ FC500 (Coulter); data were analyzed using ModFit v3.1 software (Verity).

[13] = tested on: Rb-proficient MDA-MB-231 breast cancer cells; assay: Flow cytometry cell cycle distribution, MDA-MB-231; type: cell-based, human
Experimental: as §1, §2

[14] = tested on: Colo-205 colorectal xenografts; assay: Subcutaneous colo-205 xenograft antitumor activity; type: in vivo, mice; conditions: colo-205 xenografts
Experimental: (§3) All animal studies were performed in accordance with American Association for Laboratory Animal Care institutional guidelines, and all protocols were approved by the Eli Lilly and Company Animal Care and Use Committee. Tumor cell lines were grown, harvested, and resuspended in a 1:1 mixture of serum-free media and matrigel (BD Biosciences), and 5 × 10^6 cells were injected subcutaneously in the rear flank of 5-to-6-week-old CD1 nu/nu female mice (Charles River Laboratories for MV4-11, mice from Harlan Laboratories for others).
When the mean tumor volume was approximately 150–300 mm^3, animals were randomized by tumor volume and the compound was administered. […] Gemcitabine was formulated in saline and administered by intraperitoneal injection. Tumor volume and body weight were measured twice weekly. When tumors were collected for biomarker analysis, the animals were asphyxiated with CO2 and the xenograft tumors excised, flash frozen in liquid nitrogen, and stored at −80 °C until analyzed. For analysis, tumor volume data were transformed to a log scale to equalize variance across time and treatment groups. The log volume data were analyzed with a 2-way repeated measures analysis of variance by time and treatment using the MIXED procedure in SAS software (version 9.2). The correlation model for the repeated measures was spatial power. Treated groups are compared to the control group at each time point.

[15] = Tolerability in colo-205 xenograft-bearing mice; type: in vivo; conditions: 56-day schedules
Experimental: as §3, with “others). Tumor volume was estimated by using the formula: vol = l × w^2 × […], where one and w are perpendicular measured diameters, and one is greater than or equal to w.” for “others).”
When the mean tumor volume was approximately 150–300 mm^3, animals were randomized by tumor volume and the compound was administered. […]. Gemcitabine was formulated in saline and administered by intraperitoneal injection. Tumor volume and body weight were measured twice weekly. When tumors were collected for biomarker analysis, the animals were asphyxiated with CO2 and the xenograft tumors excised, flash frozen in liquid nitrogen, and stored at −80 °C until analyzed. […] The log volume data were analyzed with a 2-way repeated measures analysis of variance by time and treatment using the MIXED procedure in SAS software (version 9.2). […]

[16] = tested on: p-Rb, TopoIIα, pHH3 in colo-205 xenografts; conditions: 24 h after oral dosing
[17] = phase 1 study in advanced cancer patients ref 38, 39; cited from earlier work
[18] = colo-205 xenograft dose response

Aurora A, sequence (O14965 whole entry): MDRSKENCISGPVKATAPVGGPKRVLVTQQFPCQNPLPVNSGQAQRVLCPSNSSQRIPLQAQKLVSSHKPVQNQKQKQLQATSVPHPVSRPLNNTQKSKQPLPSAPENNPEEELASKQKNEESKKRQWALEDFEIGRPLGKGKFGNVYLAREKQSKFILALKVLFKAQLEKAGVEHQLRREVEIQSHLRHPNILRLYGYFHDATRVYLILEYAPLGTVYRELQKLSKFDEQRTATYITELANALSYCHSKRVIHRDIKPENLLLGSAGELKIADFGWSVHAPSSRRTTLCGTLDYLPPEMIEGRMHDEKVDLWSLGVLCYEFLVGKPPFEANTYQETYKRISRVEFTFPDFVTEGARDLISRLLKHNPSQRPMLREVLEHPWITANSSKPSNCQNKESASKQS
Aurora B, sequence (Q96GD4 whole entry): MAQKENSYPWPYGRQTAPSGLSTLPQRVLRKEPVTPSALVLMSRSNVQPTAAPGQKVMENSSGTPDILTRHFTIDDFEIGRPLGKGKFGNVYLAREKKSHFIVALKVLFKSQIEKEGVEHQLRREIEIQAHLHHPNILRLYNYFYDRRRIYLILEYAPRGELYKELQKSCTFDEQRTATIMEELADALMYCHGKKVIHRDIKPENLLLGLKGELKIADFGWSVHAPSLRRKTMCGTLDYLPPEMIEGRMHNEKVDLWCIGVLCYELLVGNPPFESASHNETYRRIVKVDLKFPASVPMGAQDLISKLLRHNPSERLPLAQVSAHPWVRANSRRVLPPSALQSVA
bRaf, sequence (P15056 whole entry): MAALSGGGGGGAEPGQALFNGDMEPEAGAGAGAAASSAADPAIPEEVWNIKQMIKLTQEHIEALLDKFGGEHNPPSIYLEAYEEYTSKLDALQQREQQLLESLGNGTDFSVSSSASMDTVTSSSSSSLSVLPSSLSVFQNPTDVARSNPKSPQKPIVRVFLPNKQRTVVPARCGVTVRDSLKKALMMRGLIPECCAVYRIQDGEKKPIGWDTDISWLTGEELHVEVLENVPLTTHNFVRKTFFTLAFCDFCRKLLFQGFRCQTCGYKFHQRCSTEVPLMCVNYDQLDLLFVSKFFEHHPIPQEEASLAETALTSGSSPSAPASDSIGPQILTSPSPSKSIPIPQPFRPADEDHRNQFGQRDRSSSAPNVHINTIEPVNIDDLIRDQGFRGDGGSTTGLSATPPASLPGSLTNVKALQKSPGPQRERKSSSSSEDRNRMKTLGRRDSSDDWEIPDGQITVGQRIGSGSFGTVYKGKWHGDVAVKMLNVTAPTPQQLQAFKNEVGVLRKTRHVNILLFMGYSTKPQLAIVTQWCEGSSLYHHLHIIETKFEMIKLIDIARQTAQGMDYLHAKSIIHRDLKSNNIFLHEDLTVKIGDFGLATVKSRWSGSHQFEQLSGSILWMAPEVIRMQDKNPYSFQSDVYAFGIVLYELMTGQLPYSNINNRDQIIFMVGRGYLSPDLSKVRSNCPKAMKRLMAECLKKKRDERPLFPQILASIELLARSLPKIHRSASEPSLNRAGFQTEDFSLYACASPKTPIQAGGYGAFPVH

Compound: CCN1CCN(Cc2ccc(Nc3ncc(F)c(-c4cc(F)c5nc(C)n(C(C)C)c5c4)n3)nc2)CC1 [LY2835219, [5-(4-Ethyl-piperazin-1-ylmethyl)-pyridin-2-yl]-[5-fluoro-4-(7-fluoro-3-isopropyl-2-methyl-3H-benzoimidazol-5-yl)-pyrimidin-2-yl]-amine]
- pIC50 [1]: 5.20
- pIC50 [2]: < 4.70
- activity against Aurora A [2]: Complete lack of activity
- pIC50 [3]: < 4.70
- activity against Aurora B [3]: Complete lack of activity
- pIC50 [4]: < 4.70
- activity against PLK1 [4]: Complete lack of activity
- pIC50 [5]: < 4.70
- pIC50 [6]: < 4.70
- pIC50 [7]: < 4.70
- pIC50 [8]: < 4.70
- pIC50 [9]: 6.18
- 4N cell population ([10]; 2.2 µM): 16%
- S cell population ([10]; 2.2 µM): 0%
- 2N cell population ([10]; 6.6 µM): 75%
- pIC50 [11]: < 4.70
- compound concentration up to which G1 arrest was sustained ([12]; MV4-11): up to 5,000 nmol/L
- concentration at which maximum G1 arrest was seen ([12]; MV4-11, 24 h): ≥ 320 nmol/L
- G1 arrest in Rb-proficient cells [13]: induced a G1 arrest
- minimally efficacious dose for tumor growth inhibition [14]: 12.5 mg/kg
- histopathologic evaluation of intestinal tissue (jejunum, ileum, cecum) ([15]; days 41 and 69): no significant changes in intestinal tissue
- hematologic changes ([15]; not dose-limiting): decreases in red cell mass and moderately reduced lymphocyte count
- TED70 for in vivo inhibition of TopoII [16, 18]: 14 mg/kg
- TED70 for in vivo inhibition of pRb [16, 18]: 14 mg/kg
- doses at which p-Rb, TopoIIα and pHH3 were all significantly inhibited ([16]; colo-205 xenografts): ≥ 12.5 mg/kg
- mean maximum steady state plasma concentration [17]: 562 nM
